These results are taken from PubChem BioAssay (NCI).

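Test compounds were applied to cells in 96-well plates for 48 hours at 5 doses. GI50 marks 50% less growth. TGI: concentration producing complete growth inhibition.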

Some test systems named below: NCI/ADR-RES ovarian; NCI-H226 lung; HT29 colon; SR leukemia; SNB-19 CNS; OVCAR-4 ovarian; IGROV1 ovarian; EKVX NSCLC.
What all share (test): NCI anticancer screen, dose series, 48 h

For `COc1cc2nc3sc(C(=O)Nc4ccc(C(=O)OC(C)C)cc4)c(C(=O)Nc4ccc(Cl)cc4C)n3c(=O)c2cc1OC`, the GI50 in the experiment on NCI/ADR-RES ovarian is 12.4 µM; with NCI-H226 lung, 16.6 µM; in the experiment with HT29 colon, 3.18 µM; in the experiment with SR leukemia, 3.05 µM; in the experiment with SNB-19 CNS, 28 µM; in the experiment with OVCAR-4 ovarian, 11.2 µM. The GI50 with IGROV1 ovarian is 0.69 µM; in the experiment on EKVX NSCLC it was 22.8 µM. The TGI is more than 100 µM in the experiment on NCI/ADR-RES ovarian; 43.4 µM in the experiment on NCI-H226 lung; more than 100 µM in the experiment on HT29 colon; 14.1 µM in the experiment with SR leukemia; 95.3 µM with SNB-19 CNS; more than 100 µM in the experiment on OVCAR-4 ovarian. Further, the results for the TGI in the experiment on IGROV1 ovarian and in the experiment with EKVX NSCLC were 17.8 µM and more than 100 µM, respectively.

Turning to `COc1ccc2c(c1)c(-c1ccc(-c3cn(S(=O)(=O)c4ccccc4)c4ccc(OC)cc34)s1)cn2S(=O)(=O)c1ccccc1`, the GI50 with NCI/ADR-RES ovarian, with NCI-H226 lung, in the experiment with HT29 colon, with SR leukemia, in the experiment with SNB-19 CNS and with OVCAR-4 ovarian was more than 100 µM in each case. The GI50 in the experiment with IGROV1 ovarian and in the experiment on EKVX NSCLC was more than 100 µM each time. For the same compound, the TGI with NCI/ADR-RES ovarian, in the experiment on NCI-H226 lung, in the experiment on HT29 colon, with SR leukemia, in the experiment with SNB-19 CNS and in the experiment on OVCAR-4 ovarian was more than 100 µM each time. Further, the TGI in the experiment on IGROV1 ovarian and with EKVX NSCLC was more than 100 µM each time.

As for `C=C1C(=O)O[C@@H]2C[C@@]3(C)CCC[C@H](C)C3=C[C@H]12`, the TGI was 27.9 µM in the experiment on NCI/ADR-RES ovarian; 29.5 µM in the experiment with NCI-H226 lung; 16.1 µM with HT29 colon; 4.78 µM with SR leukemia; 30.1 µM with SNB-19 CNS; 17.6 µM in the experiment with OVCAR-4 ovarian. In addition, the TGI in the experiment on IGROV1 ovarian came out at 29.6 µM; with EKVX NSCLC, 28.2 µM.

As to `COc1ccc2nc(-c3cc(-c4cc(OC)c(OC)c(OC)c4)n[nH]3)[nH]c2c1`, the GI50 in the experiment on NCI/ADR-RES ovarian was 2.91 µM; in the experiment on NCI-H226 lung, 0.462 µM; with HT29 colon it was 2.76 µM; in the experiment on SR leukemia it was 1.74 µM; in the experiment with SNB-19 CNS, 2.98 µM; in the experiment on OVCAR-4 ovarian it was 1.24 µM. Besides, the GI50 in the experiment on IGROV1 ovarian was 1.9 µM. In addition, the TGI with NCI/ADR-RES ovarian is more than 100 µM; in the experiment on NCI-H226 lung it was 2.98 µM; with HT29 colon, 16.2 µM; with SR leukemia, 8.38 µM; in the experiment on SNB-19 CNS it was 14.1 µM; in the experiment on OVCAR-4 ovarian it was 4.81 µM. Further, the TGI with IGROV1 ovarian is 7.11 µM.

Turning to `CC[C@H](C)[C@H]1NC(=O)[C@@H](N[C@](C)(O)[C@@H](N)CC(C)C)[C@@H](C)OC(=O)[C@H](Cc2ccc(OC)cc2)N(C)C(=O)[C@@H]2CCCN2C(=O)[C@H](CC(C)C)NC(=O)[C@@H](C)C(=O)[C@H](C(C)C)OC(=O)C[C@@H]1O`, the GI50 was 2.18 µM with NCI/ADR-RES ovarian; 0.0175 µM with NCI-H226 lung; 0.00695 µM in the experiment with HT29 colon; 0.00603 µM with SR leukemia; 0.0137 µM in the experiment on SNB-19 CNS; 0.0189 µM in the experiment on OVCAR-4 ovarian. The GI50 in the experiment on IGROV1 ovarian was 0.0133 µM. In addition, the TGI came to 46.5 µM in the experiment with NCI/ADR-RES ovarian; 0.501 µM in the experiment on NCI-H226 lung; 0.702 µM in the experiment on HT29 colon; 0.0422 µM in the experiment on SR leukemia; 0.461 µM in the experiment on SNB-19 CNS; 0.365 µM in the experiment with OVCAR-4 ovarian. In the experiment with IGROV1 ovarian, the TGI was 0.413 µM.

On to `CC1=C(C(=O)Nc2ccc(F)c(Cl)c2)C(c2ccccc2Cl)NC(=S)N1` (stereo not drawn), for which the GI50 in the experiment with NCI/ADR-RES ovarian is 18 µM; with SR leukemia, 23.1 µM; in the experiment with SNB-19 CNS it was 40 µM; with IGROV1 ovarian, 22.8 µM; in the experiment on EKVX NSCLC it was more than 50 µM. Further, the TGI is 49.1 µM in the experiment on NCI/ADR-RES ovarian; more than 50 µM in the experiment on SR leukemia; more than 50 µM with SNB-19 CNS; more than 50 µM in the experiment on IGROV1 ovarian; more than 50 µM with EKVX NSCLC.

Regarding `O=[N+]([O-])c1ccc(Br)c([N+](=O)[O-])c1`, the GI50 with NCI/ADR-RES ovarian is 2.39 µM; with NCI-H226 lung, 8.36 µM; in the experiment on SR leukemia, 1.56 µM; in the experiment with SNB-19 CNS, 2.9 µM; in the experiment on OVCAR-4 ovarian it was 1.72 µM; with IGROV1 ovarian, 1.92 µM. Moreover, the GI50 in the experiment on EKVX NSCLC is 1.84 µM. Further, the TGI came to 5.69 µM in the experiment on NCI/ADR-RES ovarian; 23.5 µM with NCI-H226 lung; 5.64 µM with SR leukemia; 9.28 µM in the experiment on SNB-19 CNS; 3.19 µM in the experiment with OVCAR-4 ovarian; 3.94 µM in the experiment with IGROV1 ovarian. Further, the TGI in the experiment with EKVX NSCLC worked out at 4 µM.

Regarding `COc1ccc(-c2[nH]c3ccccc3c2C=C(C#N)C#N)cc1`, the GI50 was 0.335 µM in the experiment on NCI/ADR-RES ovarian; 0.873 µM in the experiment on NCI-H226 lung; 0.371 µM in the experiment on HT29 colon; 1.3 µM with SNB-19 CNS; 0.797 µM in the experiment on OVCAR-4 ovarian; 0.648 µM with EKVX NSCLC. Moreover, the TGI in the experiment on NCI/ADR-RES ovarian was 4.7 µM; in the experiment with NCI-H226 lung, more than 20.1 µM; with HT29 colon it was more than 100 µM; in the experiment on SNB-19 CNS, 36.5 µM; in the experiment with OVCAR-4 ovarian, more than 100 µM; with IGROV1 ovarian, more than 100 µM. Moreover, the TGI in the experiment with EKVX NSCLC is more than 100 µM.

Consider `O=C1NN(c2ccc(C(=O)O)cc2)C(=O)/C1=C\c1ccc([N+](=O)[O-])o1`, for which the GI50 in the experiment with NCI/ADR-RES ovarian was 89.3 µM; in the experiment on NCI-H226 lung, more than 100 µM; in the experiment with HT29 colon, 18.6 µM; with SR leukemia, 32.9 µM; in the experiment with SNB-19 CNS it was more than 100 µM; with IGROV1 ovarian, 20.5 µM. Further, the GI50 in the experiment with EKVX NSCLC was more than 100 µM. Besides, the TGI is more than 100 µM in the experiment on NCI/ADR-RES ovarian; more than 100 µM with NCI-H226 lung; 35.8 µM with HT29 colon; more than 100 µM in the experiment on SR leukemia; more than 100 µM in the experiment with SNB-19 CNS; 52.6 µM in the experiment with IGROV1 ovarian. For the same compound, in the experiment with EKVX NSCLC, the TGI was more than 100 µM.

Turning to `CCOc1c(Br)cc(C2C(C(=O)OC)=CN(C)C=C2C(=O)OC)cc1OC`, the GI50 in the experiment on NCI/ADR-RES ovarian is 43.6 µM; with NCI-H226 lung it was 86.3 µM; with HT29 colon, 45.6 µM; in the experiment with SR leukemia, 30.6 µM; in the experiment on SNB-19 CNS, 83.8 µM; with OVCAR-4 ovarian it was 54.1 µM. Moreover, the GI50 in the experiment with IGROV1 ovarian is more than 100 µM. Besides, the TGI in the experiment on NCI/ADR-RES ovarian, with NCI-H226 lung, with HT29 colon, with SR leukemia, in the experiment with SNB-19 CNS and in the experiment with OVCAR-4 ovarian was more than 100 µM each time. In addition, the TGI in the experiment with IGROV1 ovarian was more than 100 µM.

Consider `Cn1cc(C2=C(c3cccc4ccccc34)C(=O)NC2=O)c2ccccc21`, for which the GI50 with NCI/ADR-RES ovarian was 9.59 µM; in the experiment on NCI-H226 lung, 7.7 µM; with HT29 colon it was 7.45 µM; in the experiment on SR leukemia, 7 µM; with SNB-19 CNS, 14 µM; in the experiment on OVCAR-4 ovarian it was 7.21 µM. Moreover, in the experiment on IGROV1 ovarian, the GI50 was 11.2 µM. Besides, the TGI was more than 25 µM in the experiment with NCI/ADR-RES ovarian; more than 25 µM with NCI-H226 lung; more than 25 µM in the experiment with HT29 colon; more than 20.9 µM with SR leukemia; more than 25 µM in the experiment on SNB-19 CNS; more than 23.8 µM in the experiment on OVCAR-4 ovarian. The same compound gave a TGI with IGROV1 ovarian of more than 24.1 µM.

Regarding `CC1=CC(=NC(=O)CBr)C=C/C1=N\S(=O)(=O)c1ccccc1`, the GI50 in the experiment with NCI/ADR-RES ovarian was 3.38 µM; with NCI-H226 lung, 15.1 µM; in the experiment on HT29 colon, 2.58 µM; in the experiment on SR leukemia it was 3.41 µM; in the experiment on SNB-19 CNS, 13.6 µM; in the experiment on OVCAR-4 ovarian, 2.61 µM. The GI50 in the experiment on IGROV1 ovarian was 3.1 µM. The TGI was found to be 14 µM with NCI/ADR-RES ovarian; 40.2 µM in the experiment on NCI-H226 lung; 6.7 µM in the experiment on HT29 colon; 18.6 µM with SR leukemia; 26.9 µM in the experiment on SNB-19 CNS; 13.2 µM in the experiment on OVCAR-4 ovarian. Further, in the experiment on IGROV1 ovarian, the TGI amounted to 12.1 µM.

On to `Oc1ccccc1-c1nn(CNc2cccc(Cl)c2)c(=S)o1`, for which the GI50 with NCI/ADR-RES ovarian is 0.371 µM; with NCI-H226 lung, 54.2 µM; with HT29 colon, 18.5 µM; in the experiment with SR leukemia, 15.1 µM; in the experiment with SNB-19 CNS it was more than 100 µM; in the experiment on IGROV1 ovarian it was 81.5 µM. In addition, the GI50 in the experiment on EKVX NSCLC is 67.2 µM. In addition, the TGI in the experiment with NCI/ADR-RES ovarian is 40 µM; with NCI-H226 lung, more than 100 µM; in the experiment with HT29 colon, more than 100 µM; in the experiment with SR leukemia, 49.4 µM; in the experiment on SNB-19 CNS it was more than 100 µM; with IGROV1 ovarian it was more than 100 µM. In the experiment with EKVX NSCLC, this compound came in with a TGI of more than 100 µM.

For `CC1CC2(C)ON=C(c3ccccc3)N2c2ccccc2S1` (stereo not drawn), the GI50 with NCI/ADR-RES ovarian is 17.6 µM; with HT29 colon it was 27.9 µM; in the experiment with SR leukemia, 34.6 µM; in the experiment with SNB-19 CNS it was 53.9 µM; in the experiment on OVCAR-4 ovarian, 88 µM; in the experiment with IGROV1 ovarian, 53 µM. For the same compound, the GI50 in the experiment with EKVX NSCLC was 29.4 µM. The TGI in the experiment with NCI/ADR-RES ovarian amounted to 46.6 µM; with HT29 colon it was 80 µM.

Consider `C/C=C(\C)C(=O)N[C@H]1CC[C@]2(C)C3CC[C@@]4(C)C(CC[C@@H]4C(C)N(C)C)C3CCC2[C@H]1OC(C)=O` (stereo partly drawn), for which the GI50 is 3.11 µM with NCI/ADR-RES ovarian; 2.38 µM in the experiment on NCI-H226 lung; 0.362 µM with HT29 colon; 2.1 µM in the experiment on SNB-19 CNS; 2.43 µM in the experiment with OVCAR-4 ovarian; 2.38 µM in the experiment on IGROV1 ovarian. The GI50 with EKVX NSCLC is 2.06 µM. In addition, the TGI was 12 µM in the experiment with NCI/ADR-RES ovarian; 7.53 µM with NCI-H226 lung; 1.34 µM in the experiment on HT29 colon; 4.13 µM in the experiment on SNB-19 CNS; 14.6 µM in the experiment with OVCAR-4 ovarian; 8.86 µM with IGROV1 ovarian. In the experiment with EKVX NSCLC, the TGI was determined as 8.62 µM.
